Earlier results on three compounds are cited in article PMC8602434 (Drugs in R&D, 2021).

One may read the Cmax as the peak of the concentration-time curve. In general, t½ refers to the time in which the quantity being followed falls by half.

For data set [1] the following is noted: sc, dose of 33 µmol/kg; cited from earlier work.
For data set [2] the following is noted: sc administration; cited from earlier work.
The subject of another data set is MC1R. Particulars: read-out: half maximal effective concentration (EC50); cited from earlier work.

Regarding `CCCC(=O)C1(c2ccccc2)CCN(C(=O)[C@@H](Cc2ccc(OC)cc2)NC(=O)[C@@H](N)Cc2cncn2C)CC1` [BMS-470539], the Cmax in data set [1] is 11 µM.

bremelanotide: in data set [2], the tmax is 0.5 to 1.0 h and the t½ was 1.9 to 2.7 h.

Regarding “α-melanocyte-stimulating hormone [α-MSH]”, in the data set with MC1R, the EC50 is 0.22 nM.
